Experimental data reported in US5608095A, “Alkyl-4-silyl-phenols and esters thereof as antiatherosclerotic agents” (Hoechst Marion Roussel, Inc., priority 1996, dated 1997).
Like-named read-outs stand apart in the source and are kept apart here.

How the values were obtained:
ICAM-1 = assay: Cell surface ELISA for ICAM-1 in human umbilical vein endothelial cells (HUVEC), TNF-alpha induced; format: cell-based; settings: 50 μM, average of two runs, numbers in parentheses represent negative values
Experimental: (§1) Cell Surface ELISA for VCAM-1/ICAM-1
(§2) Proliferating human umbilical vein endothelial cells (HUVEC) or human aortic smooth muscle cells (HASMC) from Clonetics (San Diego, Calif.) were plated onto 96-well plates in 100 μL medium per well at 20,000 cells per cm^2. The cultures were maintained in growth medium (EGM or SMGM2, Clonetics, San Diego, Calif.) for two days prior to addition of cytokines or drugs. Cytokines plus or minus compounds were added for 20 to 24 hours prior to analysis for adhesion molecule levels. Tumor necrosis factor (Genzyme, Cambridge, Mass.) was added to cultures at 500-1000 units/mL. Interleukin-4 (GIBCO-BRL, Gaithersburg, Md.) was added to cultures at 100-200 pg/mL. (Additions were made by transferring 100 [μL of cytokines plus compounds serially diluted on a separate 96-well plate into the plates containing cells. The medium on the cultures was not exchanged prior to addition of effectors). The culture medium was removed, and the monolayers were washed twice with Hanks buffered saline solution (HBSS) at room temperature. The primary antibody (anti-human VCAM-1 from Upstate Biotechnology, Inc., Lake Placid, N.Y. or anti-human ICAM-1 from Immunotech, Inc., Westbrook, Me.) was added to each well (1 μg/mL in HBSS plus 5% newborn calf serum, GIBCO-BRL, Gaithersburg, Md.) and incubated at 37° C. for 1 hr. The wells were washed twice with HBSS, then 100 μL of a 1/1000 dilution of goat anti-mouse IgG conjugated to horse radish peroxidase (BioRad, Hercules, Calif.) in HBSS plus 5% newborn calf serum was added to each well and incubated for 1 hr at 37° C. The wells were washed three times with HBSS, then 100 μL of TMB substrate (BioRad, Hercules, Calif.) was added to each well. The reaction was stopped after blue color developed by addition of 50 μL of 1N H2 SO4. Absorbance is measured at 450 nm with a plate reader. IC50 values were determined from curves of absorbance values obtained from serial dilutions of compounds (dissolved in dimethyl sulfoxide).
(§3) The IC50 value is defined as the drug concentration that inhibits the cytokine-induced adhesion molecule expression by 50%. Maximal values for adhesion molecule expression in cytokine-induced cultures was […] the basal level of adhesion molecule expression (minus cytokines) in the cultures to determine the level of induction. […] Each drug concentration was tested in quadruplicate wells. Single point tests of compounds at 50 μM were assayed as described for IC50 determinations, except that the data represent the level of inhibition without correction for basal expression. (Basal adhesion molecule expression was 10-20% of the total induced expression). Table 1 summarizes the ability of various compounds of this invention to inhibit VCAM-1 using human aortic smooth muscle cells (HASMC). In these experiments, the cells were coincubated with interleukin-4 and the compounds listed about 20 hr before assaying cell surface VCAM-1 levels. Each column represents a separate experiment.
(§4) In these experiments, the cells were coincubated with tumor necrosis factor-alpha along with the indicated compounds about 20 to 24 hr before assaying cell surface adhesion molecule expression.

VCAM-1 = assay: Cell surface ELISA for VCAM-1 in human umbilical vein endothelial cells (HUVEC), TNF-alpha induced; format: cell-based; settings: 50 μM, average of three runs
Experimental: as §1, §2, §3, §4

[1] = tested on: serum cholesterol, LDL, HDL, triglycerides; assay: Serum lipids and lipoprotein cholesterol in cholesterol-fed female New Zealand White rabbits; format: in vivo; settings: Oryctolagus cuniculus, po; for response vs control in vivo at 0.4 %: 168 h; for response vs control in vivo at 0.6 %: 336 h, diet 0.6%, 14 days
How it was run: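 Female New Zealand White rabbits fed 0.2% cholesterol chow sprayed with 0.4% compound (some at 0.26% or 0.6%) for 7 days (0.6% arm, 14 days). Fasted serum: total cholesterol and triglycerides enzymatically (mg/dL); VLDL/LDL/HDL separated by Sepharose 6HR gel-filtration HPLC, post-column cholesterol reagent at 37 °C, A500.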

[2] = Food consumption, body and liver weight in cholesterol-fed rabbits; format: in vivo, female New Zealand White rabbits; settings: for body wt., percent of control / lw/bw (liver weight/body weight), percent of control: rabbit
How it was run: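 Female New Zealand White rabbits fed 100 g/day of 0.2% cholesterol chow sprayed with compound (mostly 0.4%; some at 0.26% or 0.6%) from ethanol or diethyl ether:ethanol 3:2, for 7 days (14 days at 0.6%). Daily food intake, terminal body and liver weights recorded in grams.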

[3] = rabbit serum, diet 0.4%, 7 days, read-out: HDL cholesterol, percent of control
[4] = rabbit serum, diet 0.4%, 7 days, read-out: LDL cholesterol, percent of control
[5] = rabbit serum, diet 0.4%, 7 days, read-out: TRIG (triglycerides), percent of control
[6] = rabbit serum, diet 0.4%, 7 days, read-out: chol tot. (total cholesterol), percent of control

Compound	ICAM-1 % inh. (ICAM-1) [%]	VCAM-1 % inh. (VCAM-1) [%]	response vs control in vivo at 0.4 % [1, 3] [%]	response vs control in vivo at 0.4 % [1, 4] [%]	response vs control in vivo at 0.4 % [1, 5] [%]	response vs control in vivo at 0.4 % [1, 6] [%]	response vs control in vivo at 0.6 % ([1]; rabbit serum, read-out: TRIG (triglycerides), percent of control) [%]	response vs control in vivo at 0.6 % ([1]; rabbit serum, read-out: chol tot. (total cholesterol), percent of control) [%]	food (grams eaten per day per rabbit), percent of control ([2]; diet 0.4%, 7 days) [%]	food (grams eaten per day per rabbit), percent of control ([2]; diet 0.6%, 14 days) [%]	body wt., percent of control ([2]; diet 0.4%, 7 days) [%]	lw/bw (liver weight/body weight), percent of control ([2]; diet 0.4%, 7 days) [%]	body wt., percent of control ([2]; diet 0.6%, 14 days) [%]	lw/bw (liver weight/body weight), percent of control ([2]; diet 0.6%, 14 days) [%]	response vs control in vivo at 0.4 % ([1]; read-out: HDL cholesterol, percent of control) [%]	response vs control in vivo at 0.4 % ([1]; read-out: LDL cholesterol, percent of control) [%]	response vs control in vivo at 0.4 % ([1]; read-out: TRIG (triglycerides), percent of control) [%]	response vs control in vivo at 0.4 % ([1]; read-out: chol tot. (total cholesterol), percent of control) [%]
CC(C)(C)c1cc(OC[Si](C)(C)c2ccccc2)cc(C(C)(C)C)c1OC(=O)CCC(=O)O [MDL 103,076, 2,6-Di-t-butyl-4-[(dimethylphenylsilyl)methyloxy]phenol succinic acid ester]	76	7.3	–	–	–	–	–	–	–	–	–	–	–	–	–	–	–	–
CC(C)(C)c1cc(SC[Si](C)(C)c2ccccc2)cc(C(C)(C)C)c1OC(=O)CCC(=O)O [MDL 103,141, 2,6-Di-t-butyl-4-[(dimethylphenylsilyl)methylthio]phenol sucinic acid ester]	79.5	1.3	–	–	–	–	–	–	–	–	–	–	–	–	–	–	–	–
CC(=O)Oc1c(C(C)(C)C)cc(OC[Si](C)(C)c2ccccc2)cc1C(C)(C)C [MDL 103,377, 2,6-Di-t-butyl-4-[(dimethylphenylsilyl)methyloxy]phenol acetic acid ester]	–	18.3	–	–	–	–	–	–	–	–	–	–	–	–	–	–	–	–
CC(C)(C)c1cc(OC[Si](C)(C)c2ccccc2)ccc1O [MDL 103,491, 2-t-Butyl-4-[(dimethylphenylsilyl)methyloxy]phenol]	80	12.0	103	81	134	85	216	139	100	80	100	89	95	96	–	–	–	–
CN(C)c1ccc([Si](C)(C)COc2cc(C(C)(C)C)c(O)c(C(C)(C)C)c2)cc1 [MDL 104,556, 2,6-Di-t-butyl-4-[(4-N,N-dimethylaminophenyldimethylsilyl)methyloxy]phenol]	1.5	33.3	116	53	81	47	–	–	100	–	97	96	–	–	–	–	–	–
CC(C)(C)c1cc(OC[Si](C)(c2ccccc2)c2ccccc2)cc(C(C)(C)C)c1O [MDL 104,599, 2,6-Di-t-butyl-4-[(diphenylmethylsilyl)methloxy]phenol]	–	12.3	105	71	64	76	–	–	98	–	99	86	–	–	–	–	–	–
CC(C)(C)c1cc(OC[Si](C)(C)c2ccccc2)c(C(C)(C)C)cc1O [MDL 104,962, 2,5-Di-t-butyl-4-[(dimethylphenylsilyl)methyloxy]phenol]	–	–	163	105	159	118	–	–	69	–	97	71	–	–	–	–	–	–
Cc1cc(OC[Si](C)(C)c2ccccc2)c(C)c(C)c1O [MDL 105,314, 2,3,6-Trimethyl-4-[(dimethylphenylsdilyl)methloxy]phenol]	75.5	10.7	–	–	–	–	–	–	–	–	–	–	–	–	–	–	–	–
CC(=O)Oc1ccc(OC[Si](C)(C)c2ccccc2)cc1C(C)(C)C [MDL 105,443, 2-t-Butyl-4-[(dimethylphenylsilyl)methyloxy]phenol acetic acid ester]	73.0	3.0	115	97	127	98	–	–	100	–	101	90	–	–	–	–	–	–
CC(C)(C)c1cc(OC[Si](C)(C)c2ccc(C(F)(F)F)cc2)cc(C(C)(C)C)c1O [MDL 105,975, 2,6-Di-t-butyl-4-[(dimethyl-4-trifluoromethylphenylsilyl)methyloxy]phenol]	2.5	6.3	–	–	–	–	–	–	100	–	101	108	–	–	76	77	143	69
COc1ccc([Si](C)(C)COc2ccc(O)c(C(C)(C)C)c2)cc1 [MDL 106,834, 2-t-Butyl-4-[(dimethyl-p-methoxylphenylsilyl)methyloxy]phenol]	–	–	61	89	98	67	–	–	99	–	99	94	–	–	–	–	–	–
